Measured values published in EP4722212A1, “NOVEL COMPOUND FOR INHIBITING PROTEIN KINASES AND PHARMACEUTICAL COMPOSITION COMPRISING SAME” (Magicbullettherapeutics Co., Ltd., priority 2023, dated 2024).
Like-named read-outs stand apart in the source and are kept apart here.

How the values were obtained:
Test in all cases: Kinase panel
Assay type in all cases: biochemical
IGFIR = IGFIR (Homo sapiens, UniProt P08069); details: read-out: residual enzyme activity
How it was run: (§1)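 Kinase profiling used a full biochemical panel. Test compound concentration: 1 µM, single point. Output: calculated residual activity, with kinases at or under 40% reported.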

FGFR2 = FGFR2 (Homo sapiens, UniProt P21802); details: FGFR2, 1 µM; read-out: residual enzyme activity
How it was run: as §1

CDK2/CYCLIN O = CDK2/CYCLIN O (Homo sapiens, UniProt P24941); details: read-out: residual enzyme activity
How it was run: as §1

HASPIN = HASPIN (Homo sapiens, UniProt Q8TF76); details: read-out: residual enzyme activity
How it was run: as §1

MSK2/RPS6KA4 = MSK2/RPS6KA4 (Homo sapiens, UniProt O75676); details: MSK2/RPS6KA4, 1 µM; read-out: residual enzyme activity
How it was run: as §1

PAK1 = PAK1 (Homo sapiens, UniProt Q13153); details: PAK1, 1 µM; read-out: residual enzyme activity
How it was run: as §1

LIMK1 = LIMK1 (Homo sapiens, UniProt P53667); details: LIMK1, 1 µM; read-out: residual enzyme activity
How it was run: as §1

YSK4/MAP3K19 = YSK4/MAP3K19 (Homo sapiens, UniProt Q56UN5); details: YSK4/MAP3K19, 1 µM; read-out: residual enzyme activity
How it was run: as §1

GCK/MAP4K2 = GCK/MAP4K2 (Homo sapiens, UniProt Q12851); details: GCK/MAP4K2, 1 µM; read-out: residual enzyme activity
How it was run: as §1

RSK3 = RSK3 (Homo sapiens, UniProt Q15349); details: RSK3, 1 µM; read-out: residual enzyme activity
How it was run: as §1

MST4 = MST4 (Homo sapiens, UniProt Q9P289); details: MST4, 1 µM; read-out: residual enzyme activity
How it was run: as §1

DMPK = DMPK (Homo sapiens, UniProt Q09013); details: read-out: residual enzyme activity
How it was run: as §1

P38G = P38G (Homo sapiens, UniProt P53778); details: read-out: residual enzyme activity
P38G, sequence (P53778 whole entry): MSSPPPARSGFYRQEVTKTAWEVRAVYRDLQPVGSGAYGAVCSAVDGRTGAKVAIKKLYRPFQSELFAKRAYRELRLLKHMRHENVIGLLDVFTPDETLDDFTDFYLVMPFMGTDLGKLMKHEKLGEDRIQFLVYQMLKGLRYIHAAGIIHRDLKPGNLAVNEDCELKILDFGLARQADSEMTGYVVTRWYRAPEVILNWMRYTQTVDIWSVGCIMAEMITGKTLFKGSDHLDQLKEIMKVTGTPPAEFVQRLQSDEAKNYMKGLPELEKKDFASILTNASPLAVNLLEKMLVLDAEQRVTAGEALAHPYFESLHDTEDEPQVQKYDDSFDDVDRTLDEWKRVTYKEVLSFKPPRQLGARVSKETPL
How it was run: as §1

CK1G2 = CK1G2 (Homo sapiens, UniProt P78368); details: read-out: residual enzyme activity
CK1G2, sequence (P78368 whole entry, species assumed): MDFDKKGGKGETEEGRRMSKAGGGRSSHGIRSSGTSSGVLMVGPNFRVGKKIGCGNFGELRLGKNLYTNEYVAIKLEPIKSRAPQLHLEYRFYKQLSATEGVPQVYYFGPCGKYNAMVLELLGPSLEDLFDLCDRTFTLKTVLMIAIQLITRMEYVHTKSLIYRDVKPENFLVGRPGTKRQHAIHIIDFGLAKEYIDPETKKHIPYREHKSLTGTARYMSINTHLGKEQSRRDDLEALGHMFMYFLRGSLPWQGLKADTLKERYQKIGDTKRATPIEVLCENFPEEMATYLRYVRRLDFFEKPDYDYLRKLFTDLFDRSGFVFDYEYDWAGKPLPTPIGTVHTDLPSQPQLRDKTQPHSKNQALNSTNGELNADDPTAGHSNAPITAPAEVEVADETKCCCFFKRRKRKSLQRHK
How it was run: as §1

AKT2 = AKT2 (Homo sapiens, UniProt P31751); details: AKT2, 1 µM; read-out: residual enzyme activity
How it was run: as §1

IRAK1 = IRAK1 (Homo sapiens, UniProt P51617); details: IRAK1, 1 µM; read-out: residual enzyme activity
How it was run: as §1

DYRK3 = DYRK3 (Homo sapiens, UniProt O43781); details: DYRK3, 1 µM; read-out: residual enzyme activity
How it was run: as §1

SIK2 = SIK2 (Homo sapiens, UniProt Q9H0K1); details: SIK2, 1 µM; read-out: residual enzyme activity
SIK2, sequence (Q9H0K1 whole entry, species assumed): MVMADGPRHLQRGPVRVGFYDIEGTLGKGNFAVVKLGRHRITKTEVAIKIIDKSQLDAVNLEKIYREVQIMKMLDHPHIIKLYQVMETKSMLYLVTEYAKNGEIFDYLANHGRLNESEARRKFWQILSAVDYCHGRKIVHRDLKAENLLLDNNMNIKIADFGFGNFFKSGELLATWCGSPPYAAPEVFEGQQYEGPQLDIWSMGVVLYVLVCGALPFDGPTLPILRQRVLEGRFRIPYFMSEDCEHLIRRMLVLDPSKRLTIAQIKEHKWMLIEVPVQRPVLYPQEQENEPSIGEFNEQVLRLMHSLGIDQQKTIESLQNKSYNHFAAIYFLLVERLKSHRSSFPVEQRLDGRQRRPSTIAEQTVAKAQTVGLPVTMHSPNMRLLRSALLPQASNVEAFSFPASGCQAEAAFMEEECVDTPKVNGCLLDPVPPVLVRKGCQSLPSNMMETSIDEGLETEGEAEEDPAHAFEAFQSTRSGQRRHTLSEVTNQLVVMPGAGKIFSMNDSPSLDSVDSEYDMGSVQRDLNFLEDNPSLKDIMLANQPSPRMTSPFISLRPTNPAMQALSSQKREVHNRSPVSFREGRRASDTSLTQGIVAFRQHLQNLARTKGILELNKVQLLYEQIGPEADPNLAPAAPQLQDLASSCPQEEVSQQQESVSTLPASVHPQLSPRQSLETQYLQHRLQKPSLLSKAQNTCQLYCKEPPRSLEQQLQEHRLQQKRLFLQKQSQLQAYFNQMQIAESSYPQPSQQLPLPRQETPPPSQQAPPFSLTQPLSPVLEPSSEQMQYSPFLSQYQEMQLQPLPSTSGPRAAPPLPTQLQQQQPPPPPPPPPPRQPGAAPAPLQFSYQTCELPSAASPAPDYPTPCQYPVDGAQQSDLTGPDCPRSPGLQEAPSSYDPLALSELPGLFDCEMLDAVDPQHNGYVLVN
How it was run: as §1

MST3/STK24 = MST3/STK24 (Homo sapiens, UniProt Q9Y6E0); details: MST3/STK24, 1 µM; read-out: residual enzyme activity
How it was run: as §1

PASK = PASK (Homo sapiens, UniProt Q96RG2); details: read-out: residual enzyme activity
PASK, sequence (Q96RG2 whole entry): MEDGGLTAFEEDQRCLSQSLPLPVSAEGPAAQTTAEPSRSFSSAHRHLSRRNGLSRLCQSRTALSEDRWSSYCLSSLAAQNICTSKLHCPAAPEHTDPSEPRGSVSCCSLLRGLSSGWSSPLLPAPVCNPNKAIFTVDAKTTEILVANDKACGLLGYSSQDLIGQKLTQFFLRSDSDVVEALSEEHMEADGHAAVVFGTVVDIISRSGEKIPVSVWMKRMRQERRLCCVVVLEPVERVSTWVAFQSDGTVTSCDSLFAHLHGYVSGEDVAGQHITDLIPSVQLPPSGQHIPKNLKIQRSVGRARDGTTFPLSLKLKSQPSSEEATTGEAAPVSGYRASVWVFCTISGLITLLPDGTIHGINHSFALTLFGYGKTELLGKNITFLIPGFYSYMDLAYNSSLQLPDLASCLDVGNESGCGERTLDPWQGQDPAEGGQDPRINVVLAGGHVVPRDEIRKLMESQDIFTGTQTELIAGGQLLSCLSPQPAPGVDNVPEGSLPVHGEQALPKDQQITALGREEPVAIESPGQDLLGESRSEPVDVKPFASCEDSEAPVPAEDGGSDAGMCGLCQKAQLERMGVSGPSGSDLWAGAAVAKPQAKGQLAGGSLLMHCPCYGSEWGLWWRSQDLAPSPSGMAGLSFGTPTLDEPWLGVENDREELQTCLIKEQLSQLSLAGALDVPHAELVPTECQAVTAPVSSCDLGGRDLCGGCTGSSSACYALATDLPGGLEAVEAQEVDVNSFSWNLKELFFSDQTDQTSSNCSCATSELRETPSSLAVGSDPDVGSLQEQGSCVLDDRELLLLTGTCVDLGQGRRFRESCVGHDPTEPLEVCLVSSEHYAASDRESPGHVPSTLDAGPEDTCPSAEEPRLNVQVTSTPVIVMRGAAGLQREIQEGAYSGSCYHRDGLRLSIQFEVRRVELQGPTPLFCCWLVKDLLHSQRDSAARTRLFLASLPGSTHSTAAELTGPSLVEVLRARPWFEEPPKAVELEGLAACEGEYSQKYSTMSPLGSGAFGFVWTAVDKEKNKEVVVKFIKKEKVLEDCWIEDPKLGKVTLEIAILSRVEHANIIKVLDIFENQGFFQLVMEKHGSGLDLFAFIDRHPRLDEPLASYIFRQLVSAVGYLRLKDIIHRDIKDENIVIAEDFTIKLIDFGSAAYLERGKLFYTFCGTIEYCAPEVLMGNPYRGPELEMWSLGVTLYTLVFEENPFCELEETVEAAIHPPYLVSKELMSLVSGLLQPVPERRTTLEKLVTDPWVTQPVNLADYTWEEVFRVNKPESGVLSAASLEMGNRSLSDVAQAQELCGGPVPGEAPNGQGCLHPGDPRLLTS
How it was run: as §1

HIPK2 = HIPK2 (Homo sapiens, UniProt Q9H2X6); details: HIPK2, 1 µM; read-out: residual enzyme activity
How it was run: as §1

DYRK1B = DYRK1B (Homo sapiens, UniProt Q9Y463); details: read-out: residual enzyme activity
How it was run: as §1

ERBB2/HER2 = ERBB2/HER2 (Homo sapiens, UniProt P04626); details: ERBB2/HER2, 1 µM; read-out: residual enzyme activity
How it was run: as §1

RON/MSTIR = RON/MSTIR (Homo sapiens, UniProt Q04912); details: read-out: residual enzyme activity
How it was run: as §1

CDK2/CYCLIN A1 = CDK2/CYCLIN A1 (Homo sapiens, UniProt P24941); details: CDK2/Cyclin A1, 1 µM; read-out: residual enzyme activity
How it was run: as §1

IRAK4 = IRAK4 (Homo sapiens, UniProt Q9NWZ3); details: IRAK4, 1 µM; read-out: residual enzyme activity
How it was run: as §1

TESK1 = TESK1 (Homo sapiens, UniProt Q15569); details: TESK1, 1 µM; read-out: residual enzyme activity
TESK1, sequence (Q15569 whole entry, species assumed): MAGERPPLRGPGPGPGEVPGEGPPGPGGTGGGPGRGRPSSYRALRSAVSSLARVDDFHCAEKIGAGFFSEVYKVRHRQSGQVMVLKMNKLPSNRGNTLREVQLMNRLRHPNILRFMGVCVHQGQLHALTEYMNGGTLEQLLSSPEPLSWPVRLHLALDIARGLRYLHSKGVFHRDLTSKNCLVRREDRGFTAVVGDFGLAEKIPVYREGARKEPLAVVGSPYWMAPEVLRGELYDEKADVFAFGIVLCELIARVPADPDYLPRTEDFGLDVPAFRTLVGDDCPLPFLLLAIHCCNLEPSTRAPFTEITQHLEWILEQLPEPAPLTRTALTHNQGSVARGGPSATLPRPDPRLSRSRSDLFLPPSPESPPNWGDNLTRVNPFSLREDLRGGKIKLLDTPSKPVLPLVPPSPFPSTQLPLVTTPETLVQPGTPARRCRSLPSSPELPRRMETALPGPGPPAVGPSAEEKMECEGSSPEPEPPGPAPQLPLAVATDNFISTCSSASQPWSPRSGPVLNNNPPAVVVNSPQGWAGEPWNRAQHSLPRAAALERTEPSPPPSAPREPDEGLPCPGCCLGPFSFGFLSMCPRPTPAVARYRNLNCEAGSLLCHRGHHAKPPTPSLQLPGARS
How it was run: as §1

HPK1/MAP4K1 = HPK1/MAP4K1 (Homo sapiens, UniProt Q92918); details: HPK1/MAP4K1, 1 µM; read-out: residual enzyme activity
How it was run: as §1

HIPK1 = HIPK1 (Homo sapiens, UniProt Q86Z02); details: HIPK1, 1 µM; read-out: residual enzyme activity
How it was run: as §1

MINK/MINK1 = MINK/MINK1 (Homo sapiens, UniProt Q8N4C8); details: MINK/MINK1, 1 µM; read-out: residual enzyme activity
How it was run: as §1

TYK1/LTK = TYK1/LTK (Homo sapiens, UniProt P29376); details: read-out: residual enzyme activity
How it was run: as §1

PKCETA = PKCETA (Homo sapiens, UniProt P24723); details: read-out: residual enzyme activity
How it was run: as §1

MAK = MAK (Homo sapiens, UniProt P20794); details: read-out: residual enzyme activity
MAK, sequence (P20794 whole entry): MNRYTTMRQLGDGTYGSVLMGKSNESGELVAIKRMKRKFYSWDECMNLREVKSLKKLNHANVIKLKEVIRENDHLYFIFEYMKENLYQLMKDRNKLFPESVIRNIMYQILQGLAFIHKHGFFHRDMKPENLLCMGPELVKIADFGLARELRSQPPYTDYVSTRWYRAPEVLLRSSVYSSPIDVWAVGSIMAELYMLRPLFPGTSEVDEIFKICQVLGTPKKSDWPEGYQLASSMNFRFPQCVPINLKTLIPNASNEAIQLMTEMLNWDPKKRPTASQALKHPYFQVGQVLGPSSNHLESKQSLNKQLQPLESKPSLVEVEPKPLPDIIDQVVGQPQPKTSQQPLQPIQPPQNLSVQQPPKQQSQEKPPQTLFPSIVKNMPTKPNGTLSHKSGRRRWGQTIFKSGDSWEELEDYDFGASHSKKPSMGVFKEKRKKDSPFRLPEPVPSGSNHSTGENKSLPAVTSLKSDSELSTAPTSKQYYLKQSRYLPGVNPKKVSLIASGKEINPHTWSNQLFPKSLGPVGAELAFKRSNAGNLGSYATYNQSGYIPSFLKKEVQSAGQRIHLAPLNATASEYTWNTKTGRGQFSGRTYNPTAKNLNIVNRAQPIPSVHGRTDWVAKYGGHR
How it was run: as §1

SRPK1 = SRPK1 (Homo sapiens, UniProt Q96SB4); details: SRPK1, 1 µM; read-out: residual enzyme activity
SRPK1, sequence (Q96SB4 whole entry, species assumed): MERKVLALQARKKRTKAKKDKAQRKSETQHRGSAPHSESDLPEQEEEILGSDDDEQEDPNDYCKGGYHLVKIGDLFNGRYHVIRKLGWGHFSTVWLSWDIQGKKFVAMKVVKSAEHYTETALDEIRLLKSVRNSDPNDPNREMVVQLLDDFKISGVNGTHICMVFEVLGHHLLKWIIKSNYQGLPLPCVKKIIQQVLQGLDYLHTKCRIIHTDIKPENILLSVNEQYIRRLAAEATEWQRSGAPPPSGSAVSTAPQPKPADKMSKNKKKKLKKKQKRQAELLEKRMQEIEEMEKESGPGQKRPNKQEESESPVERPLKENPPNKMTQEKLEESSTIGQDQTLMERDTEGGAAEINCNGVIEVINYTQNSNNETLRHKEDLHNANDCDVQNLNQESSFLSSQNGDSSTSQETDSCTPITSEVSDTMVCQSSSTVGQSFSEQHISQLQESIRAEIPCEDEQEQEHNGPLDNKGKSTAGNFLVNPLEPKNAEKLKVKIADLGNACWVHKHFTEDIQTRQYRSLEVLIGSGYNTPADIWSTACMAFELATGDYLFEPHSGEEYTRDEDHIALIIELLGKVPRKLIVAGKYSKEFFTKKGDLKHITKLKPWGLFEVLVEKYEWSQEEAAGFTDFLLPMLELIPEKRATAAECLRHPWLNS
How it was run: as §1

Measured: remaining activity at 1 µM

Cc1ccc(Nc2ncc3c(n2)C2(CC2)C(=O)N(c2cc(NC(=O)c4cccc(C(F)(F)F)c4)ccc2C)C3)cn1 [Compound 51, N-(4-methyl-3-(2'-((6-methylpyridin-3-yl)amino)-7'-oxo-5'H-spiro[cyclopropane-1,8'-pyrido[4,3-d]pyrimidine]-6'(7'H)-yl)phenyl)-3-(trifluoromethyl)benzamide]
> 40%: IGFIR | CDK2/CYCLIN O | HASPIN | MSK2/RPS6KA4 | PAK1 | RSK3 | MST4 | DMPK | P38G; P38g | CK1G2; CKlg2, 1 µM | AKT2 | IRAK1 | DYRK3 | MST3/STK24 | PASK | HIPK2 | DYRK1B | RON/MSTIR | CDK2/CYCLIN A1 | IRAK4 | HIPK1 | TYK1/LTK | PKCETA | MAK | SRPK1
≤ 40%: FGFR2 | LIMK1 | YSK4/MAP3K19 | GCK/MAP4K2 | SIK2 | ERBB2/HER2 | TESK1 | HPK1/MAP4K1 | MINK/MINK1

Cc1cn(-c2cc(C(=O)Nc3ccc(C)c(N4Cc5cnc(NC6CC6)nc5C5(CC5)C4=O)c3)cc(C(F)(F)F)c2)cn1 [Compound 8, N-(3-(2'-(cyclopropylamino)-7'-oxo-5'H-spiro[cyclopropane-1,8'-pyrido[4,3-d]pyrimidine]-6'(7'H)-yl)-4-methylphenyl)-3-(4-methyl-1H-imidazol-1-yl)-5-(trifluoromethyl)benzamide]
> 40%: IGFIR | CDK2/CYCLIN O | HASPIN | MSK2/RPS6KA4 | PAK1 | RSK3 | MST4 | DMPK | P38G; P38G | CK1G2; CK1G2, 1 µM | AKT2 | IRAK1 | DYRK3 | SIK2 | MST3/STK24 | PASK | HIPK2 | DYRK1B | RON/MSTIR | CDK2/CYCLIN A1 | IRAK4 | HIPK1 | PKCETA | MAK | SRPK1
≤ 40%: FGFR2 | LIMK1 | YSK4/MAP3K19 | GCK/MAP4K2 | ERBB2/HER2 | TESK1 | HPK1/MAP4K1 | MINK/MINK1 | TYK1/LTK
